Laboratory results reported in patent US12503483B2, “Gemcitabine amphiphile prodrugs” (NANOMED HOLDINGS PTY LTD, priority 2018, dated 2025).
Where two headings read alike, the source gives them in different places.

Legend:
[1] = SAXS phase behaviour of hydrated Gem amphiphiles; assay type: physicochemical; conditions: equilibration 48 h
Procedure: SAXS analyses of the bulk and lyotropic phases of the amphiphiles were performed on a Bruker NanoSTAR laboratory SAXS instrument (Brucker AXS, Kalsruhe, Germany).
The equilibrated lyotropic phases were placed into a demountable button sample cells. For the analysis of the dispersions, a multi-capillary holder was used. Button cells and capillary holder interchangeably fit into a block setup that was temperature-controlled with a Peltier heater-cooler system. 2D scattering images were radially averaged to conventional 1 D scattering plots and as a function of the q value (Å-1) where q is the length of the scattering vector which was calculated using the formula q=(4π/λ)sin(θ/2), where A is the wavelength and 6 is the scattering angle.
The mesophases formed were determined by indexing peaks using the reflection laws as described by De Campo et al., Langmuir, 2004. 20(13), 5254-5261. Small angle X-ray scattering patterns of emulsions and liposomes display large broad peaks while liquid crystalline phases of highly ordered nanostructured particles such as cubosomes and hexosomes display distinct sharp peaks. The relative positions of the peaks (“spacing”) allows for the elucidation of the symmetry of the structure. The interplanar distance (d) between two reflecting planes may be calculated using the formula d=(2π)/q, where q is the absolute position of the peak. This, in turn allows for the calculation of the lattice parameter (a), the size of the unit cell, to be calculated.
(§1) The results of the water penetration scans and SAXS are summarised in Tables 1 and 2 and indicate that various self-assembled lyotropic liquid crystalline phases were formed for the different Gem apmphiphiles, with a broad range of mesophases from lamellar crystalline structure to lamellar liquid crystalline, cubic mesophases and sponge mesophases.

CFPAC-1 cell line [2] = assay: MTS cytotoxicity assay, 72 hours; assay type: cell-based; conditions: CFPAC-1, 72 hours, prodrugs as nanoparticle dispersions
Procedure: (§2) The cytotoxicity of gemcitabine nanoparticles dispersion made from gemcitabine amphiphiles in the presence or absence of DMPC-cholesterol was evaluated in comparison to gemcitabine alone in several pancreatic cell lines including CF Pac-1, BxPC3, Panc-1 and MIA PaCa-2, MCF7and CACO2 cell lines. The cell lines were exposed to media with varying concentrations of the treatments (100-0.001 μM) and incubated for 72 hours. Cell viability was determined using the MTS assay and was conducted in triplicate to derive the IC50 values.

CACO2 cell line = assay: MTS cytotoxicity assay, 72 hours; assay type: cell-based; conditions: prodrugs as nanoparticle dispersions
Procedure: as §2

MCF7 cell line = assay: MTS cytotoxicity assay, 72 hours; assay type: cell-based; conditions: MCF7, 72 hours, prodrugs as nanoparticle dispersions
Procedure: as §2

[3] = Water penetration scan by polarized optical microscopy (POM); assay type: physicochemical; conditions: for Appearance of the Lyotropic phase at excess water (25° C.-50° C.): POM, equilibration 1 h; for Lyotropic phase formed in water penetration scan: neat amphiphile to pure water gradient, temperature as worded
Procedure: Polarized Optical Microscopy (POM): Samples used for Polarized Optical Microscopy (POM) were prepared by placing a small amount of prodrug amphiphile on a microscope slide and covered with a cover slip. Water was placed on the edges of the cover slip and allowed to flow into the sample by capillary action. The microscope slide was placed in a Linkam PE94 hot stage (Linkam Scientific Instruments Ltd. Surrey, England) and heated at 3° C./min between room temperature and 50° C. […] Images were captured with a Nikon DS-Ri-1 camera. All images were taken at 100× magnification.
as §1
The textures obtained from water penetration scans along the established concentration gradient from neat amphiphile to pure water provide a quick insight into the lyotropic phase behaviour of a surfactant/water system. Melted neat amphiphile was placed on a microscopic slide and water was then introduced around the edge.

[4] = test system: Carboxylesterase from porcine liver; assay: In-situ enzymatic bioconversion of prodrug nanoparticles (LC/MS); assay type: in vitro ADME; conditions: DMPC/cholesterol nanoparticles, 50 uM prodrug, 33.7 units/mL, 37° C.; for Bioconversion to Gemcitabine: FIG. 7b
Procedure: Nanoparticle dispersions of a mixture of Dimyristoylphosphatidylcholine and cholesterol with either (i) Gemcitabine-Phytanyl, (ii) Gemcitabine-PEG3-oleoyl or (iii) Gemcitabine-PEG3-oleoylamide were made at […] concentration of Gemcitabine prodrugs. Carboxylesterase solution from porcine liver obtained from Sigma-Aldrich was added to the nanoparticle dispersions, and the enzyme concentration in each respective nanoparticle dispersion was set to 33.7 units/mL.
The time at which the enzyme solution was added was taken as time zero for the hydrolysis reaction. The mixture was maintained at 37° C. throughout the experiment. The concentration of the hydrolysis product was measured at various time intervals using LC/MS and LC/MS^2 for the detection of prodrug converted to the active drug Gemcitabine. The time at which the sample was injected into the LC column was taken to be the reaction time for such sample. The hydrolysis progress curve, showing the decrease in the concentration of original substrate was plotted against time, whereas the bioconversion to Gemcitabine was determined by MS^2 methods. Standard curves for both prodrugs and the active bioconverted gemcitabine was assessed by using standard samples.
Thermo Finnigan (Finnigan LCQ Series, Thermo Scientific, USA) LC/MS equipped with an electron spray ionization (ESI) was used to assess the enzymatic reaction using both MS and MS^2 mode. The prodrug depletion was detected by negative ion for MS. The conversion of the prodrug to the Gemcitabine was detected by MS^2 at 112.1. 10 μl of sample withdrawn from the reaction solution was injected directly into a Phenomenex C8 150 mm×2 mm 5 uLuna column (Phenomenex, Australia). A 100% Methanol solution was used as mobile phase with the flow rate of 0.5 ml/min. The sample after the column separation was eluted to ESI source. The capillary temperature and ion spray voltage were set at 350° C. and 4.60 respectively. The sample temperature was well maintained at 37° C. during the entire measurement by incubating the samples in the temperature controlled auto-sampler. Data were acquired and processed with Xcalibur Quan chromatography software.
The decreased prodrug was calculated as the percentage of the area under the peak of Gemcitabine-prodrug compared to that before addition of the enzyme. The amount of Gemcitabine produced, was calculated from the area under the peak at 3.4 min related to Gemcitabine at 263 and its MS^2 at 112.1.

MIAPaCa-2 cell line = assay: MTS cytotoxicity assay, 72 hours; assay type: cell-based; conditions: Homo sapiens, MIA PaCa-2, MIAPaCa-2, 72 hours
Procedure: as §2

PANC-1 cell line = assay: MTS cytotoxicity assay, 72 hours; assay type: cell-based; conditions: Homo sapiens, PANC-1, 72 hours
Procedure: as §2

BxPC3 cell line = assay: MTS cytotoxicity assay, 72 hours; assay type: cell-based; conditions: Homo sapiens, BXPC-3, BxPC3, 72 hours
Procedure: as §2

CFPAC-1 cell line [5] = conditions: 72 hours; read-out: IC50 of gemcitabine against the CFPAC-1 cell line; cited from earlier work
[6] = test system: CFPAC-1 cell line-derived xenograft; assay: In vivo tumour inhibition, CFPAC-1 xenograft; set-up: species or system mice
Procedure: All treatments were administered via IV injection twice a week for four weeks. The amount of gemcitabine administered in the Gem nanoparticles was 4.45 mg/kg, which is an order of magnitude less than the ordinary dose used in clinic. The doses were equimolar with the gemcitabine control group in order to allow for a direct comparison of the anti-tumour efficacy between groups. The amount of total lipid injected was 1 mg/dose. Gemcitabine is administered intravenously at a dose of 1000 mg/m2 to treat pancreatic cancer in humans. The dose administered here is equivalent to 13.35 mg/m2 of gemcitabine being injected into humans; 1.33% of the clinical dose of gemcitabine in humans. In other studies, the amount of gemcitabine injected into mice in vivo studies has ranged from 7-100 mg/kg.
At the end of the study, the tumours were harvested.

Row | SMILES | Lyotropic phase ([1]; 25° C.) | Lyotropic phase ([1]; 37° C.) | Appearance of the Lyotropic phase at excess water (25° C.-50° C.) [3] | Lyotropic phase lattice parameter ([1]; 25° C.) | Lyotropic phase lattice parameter ([1]; 37° C.) | Prodrug reduction (hydrolysis) by CES enzyme [4] | also measured
1 | CCCCC/C=C\C/C=C\CCCCCCCC(=O)OCCOCCOCCOC(=O)Nc1ccn([C@@H]2O[C@H](CO)[C@@H](O)C2(F)F)c(=O)n1 (relative stereo) [Gem-PEG3-linoleoyl, 2′-deoxy-2′,2′-difluoro-N4-((((cis-9, cis-12-octadecadienoyl)-oxy-triethyleneglycol)oxy)carbonyl) cytidine] | Sponge phase (L3) | Sponge phase (L3) | An isotropic band, emulsion | – | – | – | IC50 (CFPAC-1 cell line [2]): 583 nM; IC50 (CACO2 cell line; CACO2, 72 hours): 200 nM; IC50 (MCF7 cell line): 100 nM
2 | CCCCCCCC/C=C\CCCCCCCC(=O)OCCOCCOCCOC(=O)Nc1ccn([C@@H]2O[C@H](CO)[C@@H](O)C2(F)F)c(=O)n1 (relative stereo) [Gem-PEG3-oleoyl, 2′-deoxy-2′,2′-difluoro-N4-((((cis-9, octadecenoyl)oxy-triethyleneglycol)oxy)carbonyl) cytidine] | – | – | Birefringent ( lamellar) | 55.26 ± 0.5 Å | 55.26 ± 0.5 Å | reduced to Gem-PEG3 and the oleic acid quickly | Bioconversion to Gemcitabine [4]: bioconverted Gemcitabine very slowly
3 | CCCCCCCC/C=C\CCCCCCCCOC(=O)Nc1ccn([C@@H]2O[C@H](CO)[C@@H](O)C2(F)F)c(=O)n1 (relative stereo) [Gem-Ole, 2′-deoxy-2′,2′-difluoro-N4-(((cis-9, octadecenyl)oxy)carbonyl) cytidine] | – | – | Anisotropic band | – | – | – | Lyotropic phase formed in water penetration scan [3]: traditional lamellar (La) phase at room temperature and 3D cubic (Pn3m) phase at elevated temperatures above 33 °C
4 | CCCCCCCC/C=C\CCCCCCCC(=O)OCCOCCOCCOCCOCCOCCOC(=O)Nc1ccn([C@@H]2O[C@H](CO)[C@@H](O)C2(F)F)c(=O)n1 (relative stereo) [Gem-PEG6-oleoyl, 2′-deoxy-2′,2′-difluoro-N4-((((cis-9, octadecenoyl)-oxy-hexaethyleneglycol)oxy)carbonyl) cytidine] | Ia3d | Ia3d | An isotropic band, cubic phase | 125.2 ± 0.5 Å | 124.4 ± 0.5 Å | – | –
5 | Nc1ccn([C@@H]2O[C@H](CO)[C@@H](O)C2(F)F)c(=O)n1 [Gemcitabine, 2′,2′-difluoro-2′-deoxycytidine] | – | – | – | – | – | – | IC50 (MIAPaCa-2 cell line): 23 nM; IC50 (CFPAC-1 cell line [2]; Homo sapiens): 65 nM; IC50 (CACO2 cell line; Homo sapiens, Caco-2, CACO2, 72 hours): 50 nM; IC50 (PANC-1 cell line): > 100000 nM; IC50 (MCF7 cell line; Homo sapiens): 6 nM; IC50 (BxPC3 cell line): 22.5 nM; IC50 (CFPAC-1 cell line [5]): 6.1 to 33 nM; Tumour size trend over time ([6]; 4.45 mg/kg gemcitabine equimolar, IV twice a week for four weeks): increased in size, however at a slower rate compared with the control PBS group; Tumour volume as % of control tumour size ([6]; 4.45 mg/kg gemcitabine equimolar, IV twice a week for four weeks, 34 days): 54%; Average ex-vivo tumour weight, order of groups ([6]; end of study, control vs nanoparticles p<0.05): control group>Gemcitabine group>Gemcitabine nanoparticles

The next lines start with results.

Row | Lyotropic phase ([1]; 25° C.) | Lyotropic phase ([1]; 37° C.) | Appearance of the Lyotropic phase at excess water (25° C.-50° C.) [3] | Lyotropic phase lattice parameter ([1]; 25° C.) | Lyotropic phase lattice parameter ([1]; 37° C.) | Prodrug reduction (hydrolysis) by CES enzyme [4] | SMILES | also measured
6 | – | – | – | – | – | reduced at a lower rate | CCCCCCCC/C=C\CCCCCCCC(=O)NCCOCCOCCOC(=O)Nc1ccn([C@@H]2O[C@H](CO)[C@@H](O)C2(F)F)c(=O)n1 (relative stereo) [Gem-PEG3-oleoylamide, 2′-deoxy-2′,2′-difluoro-N4-((((cis-9, octadecenoyl)amino-triethyleneglycol)oxy)carbonyl) cytidine] | Time of prodrug reduction ([4]; FIG. 7a): 6 h; Bioconversion to Gemcitabine [4]: produced Gemcitabine sustainably
7 | – | – | A birefringent band (LC) | 53.2 ± 0.5 Å | 53.2 ± 0.5 Å | – | CCCCC/C=C\C/C=C\CCCCCCCCOC(=O)Nc1ccn([C@@H]2O[C@H](CO)[C@@H](O)C2(F)F)c(=O)n1 (relative stereo) [Gem-Lin, 2′-deoxy-2′,2′-difluoro-N4-(((cis-9,12,octadecadienenyl)oxy)carbonyl) cytidine] | –
8 | Sponge phase (L3) | – | Emulsion | – | – | – | CC/C=C\C/C=C\C/C=C\CCCCCCCC(=O)OCCOCCOCCOCCOCCOCCOC(=O)Nc1ccn([C@@H]2O[C@H](CO)[C@@H](O)C2(F)F)c(=O)n1 (relative stereo) [Gem-PEG6-linolenoyl, 2′-deoxy-2′,2′-difluoro-N4-((((cis-9, 12, 15 octadecatrienoyl)-oxy-hexaethyleneglycol)oxy)carbonyl) cytidine] | –
9 | Ia3d | Ia3d | An isotropic band | 135.8 ± 0.5 Å | 135.8 ± 0.5 Å | slowest prodrug to reduce completely | CC(C)CCCC(C)CCCC(C)CCCC(C)CCOC(=O)Nc1ccn([C@@H]2O[C@H](CO)[C@@H](O)C2(F)F)c(=O)n1 (stereo partly shown) [Gem-Phy, 2′-deoxy-2′,2′-difluoro-N4-(((3,7,11,15-tetramethyl-hexadecyl)oxy)carbonyl) cytidine] | Lyotropic phase formed in water penetration scan [3]: 3D inversed bicontinous cubic phase (Pn3m space group) initially and then transform to 2D hexagonal phase
